Calls of active or inactive are those of the source.
What was measured:
Gossypium hirsutum [1] = assay: Post-emergence phytotoxicity against Gossypium hirsutum (cotton) assessed as mortality at 1.6 g a.i/10 a applied 11 days after germination as foliar spray; format: organism-based; conditions: in vivo, other, 264 h
Glycine max [2] = assay: Post-emergence phytotoxicity against Glycine max (soybean) assessed as mortality at 1.6 g a.i/10 a applied 11 days after germination as foliar spray; format: organism-based; conditions: in vivo, other, 264 h
Glycine max [3] = assay: Post-emergence phytotoxicity against Glycine max (soybean) assessed as mortality at 6.3 g a.i/10 a applied 11 days after germination as foliar spray; format: organism-based; conditions: in vivo, other, 264 h
Abutilon theophrasti [4] = assay: Post-emergence herbicidal activity against Abutilon theophrasti (velvetleaf) assessed as mortality at 1.6 g a.i/10 a applied 11 days after germination as foliar spray; format: functional; conditions: 264 h
Zea mays [5] = assay: Post-emergence phytotoxicity against Zea mays (maize) assessed as mortality at 1.6 g a.i/10 a applied 11 days after germination as foliar spray; format: organism-based; conditions: in vivo, other, 264 h
Echinochloa crus-galli [6] = assay: Post-emergence herbicidal activity against Echinochloa crus-galli (barnyard grass) assessed as mortality at 1.6 g a.i/10 a applied 11 days after germination as foliar spray; format: functional; conditions: 264 h
Ipomoea lacunosa [7] = assay: Post-emergence herbicidal activity against Ipomoea lacunosa assessed as mortality at 6.3 g a.i/10 a applied 11 days after germination as foliar spray; format: functional; conditions: 264 h
Echinochloa crus-galli [8] = assay: Post-emergence herbicidal activity against Echinochloa crus-galli (barnyard grass) assessed as mortality at 6.3 g a.i/10 a applied 11 days after germination as foliar spray; format: functional; conditions: 264 h
Abutilon theophrasti [9] = assay: Post-emergence herbicidal activity against Abutilon theophrasti (velvetleaf) assessed as mortality at 6.3 g a.i/10 a applied 11 days after germination as foliar spray; format: functional; conditions: 264 h
[10] = (§1) Post-emergence phytotoxicity against Gossypium hirsutum (cotton) assessed as mortality at 6.3 g a.i/10 a applied 11 days after germination as foliar spray; format: organism-based; conditions: in vivo, 6.3 g a.i/10 a
Cyperus iria [11] = assay: Pre-emergence herbicidal activity against Cyperus iria assessed as growth inhibition at 25 g a.i/10 a; format: functional, organism-based
Amaranthus retroflexus [12] = assay: Pre-emergence herbicidal activity against Amaranthus retroflexus assessed as mortality per 10 acre; format: functional
Xanthium strumarium [13] = assay: Pre-emergence herbicidal activity against Xanthium strumarium (cocklebur) assessed as mortality at 1.6 g a.i/10 a; format: functional; conditions: Xanthium strumarium, pre-emergence
Ipomoea lacunosa [14] = assay: Post-emergence herbicidal activity against Ipomoea lacunosa assessed as mortality per 10 acre; format: functional
Xanthium strumarium [15] = assay: Pre-emergence herbicidal activity against Xanthium strumarium (cocklebur) assessed as mortality per 10 acre; format: functional
Echinochloa crus-galli [16] = assay: Pre-emergence herbicidal activity against Echinochloa crus-galli (barnyard grass) assessed as growth inhibition at 25 g a.i/10 a; format: functional, organism-based
Abutilon theophrasti [17] = assay: Pre-emergence herbicidal activity against Abutilon theophrasti (velvetleaf) assessed as mortality at 1.6 g a.i/10 a; format: functional; conditions: Abutilon theophrasti, pre-emergence
Gossypium hirsutum [18] = assay: Post-emergence phytotoxicity against Gossypium hirsutum (cotton) assessed as mortality per 10 acre; format: organism-based; conditions: in vivo
Glycine max [19] = assay: Pre-emergence phytotoxicity against Glycine max (soybean) assessed as mortality at 1.6 g a.i/10 a; format: organism-based; conditions: in vivo, other
Chenopodium album [20] = assay: Post-emergence herbicidal activity against Chenopodium album assessed as growth inhibition at 25 g a.i/10 a applied 11 days after germination as foliar spray; format: functional, organism-based
Zea mays [21] = assay: Pre-emergence phytotoxicity against Zea mays (maize) assessed as mortality at 6.3 g a.i/10 a; format: organism-based; conditions: in vivo, other
Glycine max [22] = assay: Pre-emergence phytotoxicity against Glycine max (soybean) assessed as mortality at 6.3 g a.i/10 a; format: organism-based; conditions: in vivo, other
Xanthium strumarium [23] = assay: Pre-emergence herbicidal activity against Xanthium strumarium (cocklebur) assessed as mortality at 6.3 g a.i/10 a; format: functional; conditions: Xanthium strumarium, pre-emergence
Xanthium strumarium [24] = assay: Post-emergence herbicidal activity against Xanthium strumarium (cocklebur) assessed as mortality at 1.6 g a.i/10 a applied 11 days after germination as foliar spray; format: functional; conditions: 264 h
Ipomoea lacunosa [25] = assay: Pre-emergence herbicidal activity against Ipomoea lacunosa assessed as mortality per 10 acre; format: functional
Amaranthus retroflexus [26] = assay: Post-emergence herbicidal activity against Amaranthus retroflexus assessed as mortality per 10 acre; format: functional
Abutilon theophrasti [27] = assay: Pre-emergence herbicidal activity against Abutilon theophrasti (velvetleaf) assessed as mortality at 6.3 g a.i/10 a; format: functional; conditions: Abutilon theophrasti, pre-emergence
Amaranthus retroflexus [28] = assay: Post-emergence herbicidal activity against Amaranthus retroflexus assessed as growth inhibition at 25 g a.i/10 a applied 11 days after germination as foliar spray; format: functional, organism-based
Gossypium hirsutum [29] = assay: Pre-emergence phytotoxicity against Gossypium hirsutum (cotton) assessed as mortality at 1.6 g a.i/10 a; format: organism-based; conditions: in vivo, other
Ipomoea lacunosa [30] = assay: Pre-emergence herbicidal activity against Ipomoea lacunosa assessed as mortality at 1.6 g a.i/10 a; format: functional; conditions: Ipomoea lacunosa, pre-emergence
Digitaria sanguinalis [31] = assay: Pre-emergence herbicidal activity against Digitaria sanguinalis (hairy crabgrass) assessed as growth inhibition at 25 g a.i/10 a; format: functional, organism-based
Amaranthus retroflexus [32] = assay: Pre-emergence herbicidal activity against Amaranthus retroflexus assessed as growth inhibition at 25 g a.i/10 a; format: functional, organism-based
Gossypium hirsutum [33] = assay: Pre-emergence phytotoxicity against Gossypium hirsutum (cotton) assessed as mortality at 6.3 g a.i/10 a; format: organism-based; conditions: in vivo, other
Cyperus iria [34] = assay: Post-emergence herbicidal activity against Cyperus iria assessed as growth inhibition at 25 g a.i/10 a applied 11 days after germination as foliar spray; format: functional, organism-based
Persicaria nodosa [35] = assay: Pre-emergence herbicidal activity against Persicaria nodosa assessed as growth inhibition at 25 g a.i/10 a; format: functional, organism-based
Ipomoea lacunosa [36] = assay: Post-emergence herbicidal activity against Ipomoea lacunosa assessed as mortality at 1.6 g a.i/10 a applied 11 days after germination as foliar spray; format: functional; conditions: 264 h
Echinochloa crus-galli [37] = assay: Post-emergence herbicidal activity against Echinochloa crus-galli (barnyard grass) assessed as mortality per 10 acre; format: functional
Echinochloa crus-galli [38] = assay: Post-emergence herbicidal activity against Echinochloa crus-galli (barnyard grass) assessed as growth inhibition at 25 g a.i/10 a applied 11 days after germination as foliar spray; format: functional, organism-based
Xanthium strumarium [39] = assay: Post-emergence herbicidal activity against Xanthium strumarium (cocklebur) assessed as mortality per 10 acre; format: functional
Gossypium hirsutum [40] = assay: Pre-emergence phytotoxicity against Gossypium hirsutum (cotton) assessed as mortality per 10 acre; format: organism-based; conditions: in vivo
Persicaria nodosa [41] = assay: Pre-emergence herbicidal activity against Persicaria nodosa assessed as mortality per 10 acre; format: functional
Persicaria nodosa [42] = assay: Post-emergence herbicidal activity against Persicaria nodosa assessed as growth inhibition at 25 g a.i/10 a applied 11 days after germination as foliar spray; format: functional, organism-based
Persicaria nodosa [43] = assay: Post-emergence herbicidal activity against Persicaria nodosa assessed as mortality per 10 acre; format: functional
Zea mays [44] = assay: Pre-emergence phytotoxicity against Zea mays (maize) assessed as mortality at 1.6 g a.i/10 a; format: organism-based; conditions: in vivo, other
Digitaria sanguinalis [45] = assay: Post-emergence herbicidal activity against Digitaria sanguinalis (hairy crabgrass) assessed as growth inhibition at 25 g a.i/10 a applied 11 days after germination as foliar spray; format: functional, organism-based
Chenopodium album [46] = assay: Pre-emergence herbicidal activity against Chenopodium album assessed as growth inhibition at 25 g a.i/10 a; format: functional, organism-based
Ipomoea lacunosa [47] = assay: Pre-emergence herbicidal activity against Ipomoea lacunosa assessed as mortality at 6.3 g a.i/10 a; format: functional; conditions: Ipomoea lacunosa, pre-emergence
Gossypium hirsutum [48] = assay: as §1; format: organism-based; conditions: in vivo, other, 264 h
Echinochloa crus-galli [49] = assay: Pre-emergence herbicidal activity against Echinochloa crus-galli (barnyard grass) assessed as mortality per 10 acre; format: functional

COc1cc(OC)nc(Sc2cccc(SC)c2C(=O)O)n1
> 90%: mortality at 16 g/ha (Abutilon theophrasti [4]) | mortality at 63 g/ha (Ipomoea lacunosa [7]) | mortality at 63 g/ha (Abutilon theophrasti [9]) | mortality at 264 h [10]
Toxic: Activity (Glycine max [2]) | Activity (Glycine max [3]) | Activity (Zea mays [5])
< 5%: mortality at 16 g/ha (Echinochloa crus-galli [6]) | mortality at 63 g/ha (Echinochloa crus-galli [8])
Non-toxic: Activity (Gossypium hirsutum [1])

COc1cc(OC)nc(Oc2ccccc2C(=O)O)n1
Toxic: Activity (Gossypium hirsutum [1]) | Activity (Zea mays [21]) | Activity (Glycine max [2]) | Activity (Glycine max [3]) | Activity (Zea mays [5]) | Activity (Gossypium hirsutum [48])
active: growth inhibition (GI) (Cyperus iria [11]) | ED90 (Amaranthus retroflexus [12]) | growth inhibition (GI) (Echinochloa crus-galli [16]) | growth inhibition (GI) (Chenopodium album [20]) | growth inhibition (GI) (Amaranthus retroflexus [28]) | growth inhibition (GI) (Digitaria sanguinalis [31]) | growth inhibition (GI) (Amaranthus retroflexus [32]) | growth inhibition (GI) (Cyperus iria [34]) | growth inhibition (GI) (Echinochloa crus-galli [38]) | growth inhibition (GI) (Persicaria nodosa [42]) | growth inhibition (GI) (Digitaria sanguinalis [45]) | growth inhibition (GI) (Chenopodium album [46])
>100 gAi: ED90 (Ipomoea lacunosa [14]) | ED90 (Xanthium strumarium [15]) | ED90 (Ipomoea lacunosa [25]) | ED90 (Xanthium strumarium [39])
Non-toxic: Activity (Glycine max [19]) | Activity (Glycine max [22]) | Activity (Gossypium hirsutum [29]) | Activity (Gossypium hirsutum [33]) | Activity (Zea mays [44])
50 gAi: ED90 (Echinochloa crus-galli [37])
12 gAi: ED20 (Gossypium hirsutum [18]) | ED90 (Amaranthus retroflexus [26]) | ED20 (Gossypium hirsutum [40]) | ED90 (Persicaria nodosa [41]) | ED90 (Persicaria nodosa [43]) | ED90 (Echinochloa crus-galli [49])
< 5%: mortality at 16 g/ha (Xanthium strumarium [13]) | mortality at 16 g/ha (Abutilon theophrasti [17]) | mortality at 63 g/ha (Xanthium strumarium [23]) | mortality at 16 g/ha (Xanthium strumarium [24]) | mortality at 63 g/ha (Abutilon theophrasti [27]) | mortality at 16 g/ha (Ipomoea lacunosa [30]) | mortality at 16 g/ha (Abutilon theophrasti [4]) | mortality at 16 g/ha (Ipomoea lacunosa [36]) | mortality at 63 g/ha (Ipomoea lacunosa [47])
inactive: growth inhibition (GI) (Persicaria nodosa [35])
